From paper PMC5775428, “Towards an experimental classification system for membrane active peptides” (Scientific Reports, 2018)
Read-outs that look alike come from different tables or passages of the source.

Assays:
Bacillus cereus = details: Bacillus cereus
Method in brief: (§1)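 Broth microdilution MICs followed CLSI M7-A10 for bacteria, with peptides tested at 0.5 to 256 μM. MIC was the lowest concentration at which no cells were seen by optical microscopy. Three biological repeats, each with two technical replicates.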

Bacillus subtilis = details: Bacillus subtilis
Method in brief: as §1

Candida albicans = details: Candida albicans
Method in brief: (§2)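 MICs determined per CLSI M7-A10 (bacteria) and M27-A3 (yeasts) protocols, peptides tested at 0.5 to 256 μM. MIC taken as the lowest concentration with no cells seen by optical microscopy; three biological repeats with 2 technical replicates each.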

Cryptococcus neoformans = details: Cryptococcus neoformans
Method in brief: as §2

Erwinia carotovora = details: Erwinia carotovora
Method in brief: as §1

Escherichia coli = details: Escherichia coli
Method in brief: as §1

Pseudomonas aeruginosa = details: Pseudomonas aeruginosa
Method in brief: as §1

[1] = test system: Pseudomonas syringae pv. tabaci; details: Pseudomonas syringae pv. tabaci
Method in brief: as §1

Staphylococcus aureus = details: Staphylococcus aureus
Method in brief: as §1

Xanthomonas campestris = test system: Xanthomonas campestris
Method in brief: as §1

FFGHIWHGARTLFRDVFA [Cs02]
Minimum inhibitory concentration (Bacillus cereus; CLSI M7-A10, triplicate 1): 64 µM | Minimum inhibitory concentration, Average (Bacillus cereus; average of triplicates): 64.0 µM | Minimum inhibitory concentration (Bacillus cereus; triplicate 2): 64 µM | Minimum inhibitory concentration (Bacillus cereus; triplicate 3): 64 µM | Minimum inhibitory concentration (Bacillus subtilis; CLSI M7-A10, triplicate 1): 2 µM | Minimum inhibitory concentration, Average (Bacillus subtilis; average of triplicates): 3.3 µM | Minimum inhibitory concentration (Bacillus subtilis; triplicate 2): 4 µM | Minimum inhibitory concentration (Bacillus subtilis; triplicate 3): 4 µM | Minimum inhibitory concentration (Candida albicans; CLSI M27-A3, 0.5 to 256 μM tested, triplicate 1, also published in ref 7): 32 µM | Minimum inhibitory concentration, Average (Candida albicans; average of triplicates): 32.0 µM | Minimum inhibitory concentration (Candida albicans; triplicate 2): 32 µM | Minimum inhibitory concentration (Candida albicans; triplicate 3): 32 µM | Minimum inhibitory concentration (Cryptococcus neoformans; CLSI M27-A3, triplicate 1): 32 µM | Minimum inhibitory concentration, Average (Cryptococcus neoformans; average of triplicates): 32.0 µM | Minimum inhibitory concentration (Cryptococcus neoformans; triplicate 2): 32 µM | Minimum inhibitory concentration (Cryptococcus neoformans; triplicate 3): 32 µM | Minimum inhibitory concentration (Erwinia carotovora; CLSI M7-A10, triplicate 1): 32 µM | Minimum inhibitory concentration, Average (Erwinia carotovora; average of triplicates): 32.0 µM | Minimum inhibitory concentration (Erwinia carotovora; triplicate 2): 32 µM | Minimum inhibitory concentration (Erwinia carotovora; triplicate 3): 32 µM | Minimum inhibitory concentration (Escherichia coli; CLSI M7-A10, triplicate 1): 8 µM | Minimum inhibitory concentration, Average (Escherichia coli; average of triplicates): 8.0 µM | Minimum inhibitory concentration (Escherichia coli; triplicate 2): 8 µM | Minimum inhibitory concentration (Escherichia coli; triplicate 3): 8 µM | Minimum inhibitory concentration (Pseudomonas aeruginosa; CLSI M7-A10, triplicate 1): 512 µM | Minimum inhibitory concentration, Average (Pseudomonas aeruginosa; average of triplicates): 512.0 µM | Minimum inhibitory concentration (Pseudomonas aeruginosa; triplicate 2): 512 µM | Minimum inhibitory concentration (Pseudomonas aeruginosa; triplicate 3): 512 µM | Minimum inhibitory concentration ([1]; CLSI M7-A10, triplicate 1): 4 µM | Minimum inhibitory concentration, Average ([1]; average of triplicates): 4.0 µM | Minimum inhibitory concentration ([1]; triplicate 2): 4 µM | Minimum inhibitory concentration ([1]; triplicate 3): 4 µM | Minimum inhibitory concentration (Staphylococcus aureus; CLSI M7-A10, triplicate 1): 8 µM | Minimum inhibitory concentration, Average (Staphylococcus aureus; average of triplicates): 8.0 µM | Minimum inhibitory concentration (Staphylococcus aureus; triplicate 2): 8 µM | Minimum inhibitory concentration (Staphylococcus aureus; triplicate 3): 8 µM | Minimum inhibitory concentration (Xanthomonas campestris; CLSI M7-A10, triplicate 1): 32 µM | Minimum inhibitory concentration, Average (Xanthomonas campestris; average of triplicates): 32.0 µM | Minimum inhibitory concentration (Xanthomonas campestris; triplicate 2): 32 µM | Minimum inhibitory concentration (Xanthomonas campestris; triplicate 3): 32 µM
